Assay results reported in PMC12281142, “A potent phenylalkylamine disrupts mycobacterial membrane bioenergetics and augments bactericidal activity of bedaquiline” (iScience, 2025).
In brackets after ≈: the same amount, converted by molar mass. Several values for one entry are separate records, joined by “and”; a condition that tells them apart may be missing. Equal entries are not always repeated. Where two headings read alike, the source gives them in different places.

What was measured:
M. bovis BCG [1] = test: microbe, parasite or virus in culture; assay type: cell-based, Mycobacterium bovis BCG
cat papillary muscle = details: cited from earlier work
M. bovis BCG [2] = assay type: cell-based, Mycobacterium bovis BCG; details: 24 h
Mab abscessus = test: Time-kill kinetics, Mab abscessus; assay type: cell-based, Mycobacterium abscessus subsp. abscessus; details: 2xMIC90 (170 μM, 89 μg/mL)
Mab abscessus ATCC 19977 = test: MIC against Mab abscessus ATCC 19977; assay type: cell-based, Mycobacterium abscessus subsp. abscessus; details: Mycobacteroides abscessus; for MIC50: ATCC19977, 72 h, 3 days
M. bovis BCG-pclgR-RFP = assay type: cell-based, Mycobacterium bovis BCG; details: 0.25x – 2x MIC90 (controls 10 μM), 24 h
M. bovis BCG [3] = assay type: cell-based, Mycobacterium bovis BCG; details: 2x MIC90 (19 μg/mL)
M. bovis BCG [4] = assay type: cell-based, Mycobacterium bovis BCG; details: PhA2 2x–4x MIC90BCG, TDZ 80 μM, 24 h
Vero E6 = test: Cytotoxicity in Vero E6 cells; assay type: cell-based, African green monkey; details: growth suppressed by 50% vs untreated
How it was run: (§1)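 Cells seeded at 50,000/well, allowed to adhere overnight in DMEM at 37 °C/5% CO2, then exposed 48 h to compound at a final 0.5% v/v DMSO. Viability read by MTS-type reagent (3 h, absorbance 490 nm), corrected for compound and vehicle blanks, and normalized to untreated cells. IC50 from sigmoidal fit of viability versus log concentration, at least 3 determinations.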

clinical isolates of Mab = test: MIC50 against Mab clinical isolates; assay type: cell-based, Mycobacterium abscessus; details: Mycobacteroides abscessus
M. bovis BCG [5] = details: 2x MIC90 over 24 h
M. bovis BCG [6] = assay type: cell-based, Mycobacterium bovis BCG; details: luminescence normalized against CFU
Mtb H37Rv = test: MIC by broth microdilution against Mtb H37Rv; assay type: cell-based, Mycobacterium tuberculosis; details: Mycobacterium tuberculosis, H37RV, 120 h
M. smegmatis mc2155 = test: MIC against M. smegmatis mc2155; assay type: cell-based, Mycobacterium smegmatis; details: Mycolicibacterium smegmatis
M. bovis BCG [7] = assay type: cell-based, Mycobacterium bovis BCG; details: 2x MIC90BCG, 6 h time point, cultures still viable
HepG2 = test: Cytotoxicity in HepG2 cells; assay type: cell-based, human; details: Homo sapiens, HepG2; 48 h, growth suppressed by 50% vs untreated
How it was run: as §1

M. bovis BCG [8] = assay type: cell-based, Mycobacterium bovis BCG; details: exponential phase M. bovis BCG, 5 days
[9] = test system: Mab massiliense CCUG 48898-T; test: MIC against Mab massiliense CCUG 48898-T; assay type: cell-based, Mycobacterium abscessus subsp. massiliense; details: Mycobacteroides abscessus; for MIC50: CCUG48898, 72 h, 3 days
M. bovis BCG [10] = assay type: cell-based, Mycobacterium bovis BCG; details: 0.5x to 4x MIC90BCG
M. bovis BCG [11] = assay type: cell-based, Mycobacterium bovis BCG; details: 2xMIC90BCG
[12] = test system: nonreplicating M. bovis BCG; assay type: cell-based, Mycobacterium bovis BCG; details: 5 days, Wayne model
[13] = 7H9 medium (first value of cell)
[14] = CA-MHB medium (second value of cell)

CCCCCCCCC(C#N)(CCCN(C)CCc1ccc(OC)c(OC)c1)c1ccc(OC)c(OC)c1 (centres unmarked) [PhA2]
MIC90 BCG (M. bovis BCG [1]; M. bovis BCG): 9 µg/mL (≈ 17.2 µM)
MIC50 (M. bovis BCG [1]; M. bovis BCG, broth dilution, growth reduced by 50% vs untreated): 10 µM (≈ 5.25 µg/mL)
MIC50 (M. bovis BCG [1]; Mycobacterium tuberculosis variant bovis BCG, BCG, 120 h, read-out: MIC50 BCG With Glycerol, 7H9 broth with glycerol, 5 days): 10 µM (≈ 5.25 µg/mL)
MIC50 (M. bovis BCG [1]; Mycobacterium tuberculosis variant bovis BCG, BCG, 120 h, read-out: MIC50 BCG Without Glycerol, 7H9 broth without glycerol, 5 days): 22 µM (≈ 11.5 µg/mL)
MIC50 (M. bovis BCG [1]; Mycobacterium tuberculosis variant bovis BCG, BCG, M. bovis BCG, broth dilution, growth reduced by 50% vs untreated): 10 to 16 µM (≈ 5.25 to 8.4 µg/mL)
MIC90 (M. bovis BCG [1]; Mycobacterium tuberculosis variant bovis BCG, BCG, M. bovis BCG, broth dilution, growth reduced by 90% vs untreated): 18 µM
MIC50 (M. bovis BCG [1]; Mycobacterium tuberculosis variant bovis BCG, BCG, read-out: M. bovis BCG MIC50 (Table S4)): 10 µM (≈ 5.25 µg/mL)
MIC90 (M. bovis BCG [1]; Mycobacterium tuberculosis variant bovis BCG, BCG, read-out: M. bovis BCG MIC90 (Table S4)): 18 µM
MIC90 (M. bovis BCG [1]; Mycobacterium tuberculosis variant bovis BCG, BCG, read-out: MIC90 (Table S1), M. bovis BCG, broth dilution): 18 µM
MIC90 (M. bovis BCG [1]; Mycobacterium tuberculosis variant bovis BCG, BCG, read-out: MIC90 BCG, M. bovis BCG): 9.4 µg/mL
ED50 (concentration to reduce maximal contractility of the papillary muscle by 50%) (cat papillary muscle): 130 µM
methylene blue decolorization (O2 uptake) (M. bovis BCG [2]; 0.5x and 1x MIC90BCG): Decolorization (active O2 uptake)
methylene blue decolorization (O2 uptake) (M. bovis BCG [2]; 2x and 4x MIC90BCG): No decolorization
reduction of CFUs (Mab abscessus): 10^5 fold
MIC90 (Mab abscessus ATCC 19977; ATCC19977, 7H9 broth (first value), read-out: MIC90 Mab abscessus ATCC 19977): 85 µM (≈ 44.6 µg/mL)
MIC50 (Mab abscessus ATCC 19977; [13]): 54 µM (≈ 28.3 µg/mL)
MIC50 (Mab abscessus ATCC 19977; [14]): 19 µM (≈ 9.97 µg/mL)
MIC90 (Mab abscessus ATCC 19977; ATCC19977, Mab abscessus, read-out: MIC90 abscessus): 85 µM and 45 µg/mL
MIC90 (Mab abscessus ATCC 19977; ATCC19977, camH broth (second value), read-out: MIC90 Mab abscessus ATCC 19977): 26 µM (≈ 13.6 µg/mL)
induction of pclgR promoter activity (M. bovis BCG-pclgR-RFP): induced promoter activity in a dose dependent manner
oxygen consumption rate (M. bovis BCG [3]): uptake was reduced to the basal level
NADH/NAD+ ratio (M. bovis BCG [4]): higher ratios
IC50 (Vero E6; 48 h): 28 µM
IC50 (Vero E6; Chlorocebus sabaeus, Vero C1008, 48 h): 28 to 29 µM
MIC50 (clinical isolates of Mab; read-out: MIC50 seven Mab clinical isolates): 22 to 39 µM
MIC50 (clinical isolates of Mab; Mab clinical isolate M9, 7H9 broth, read-out: MIC50 M9): 26.5 µM
MIC50 (clinical isolates of Mab; Mab clinical isolate M111, 7H9 broth, read-out: MIC50 M111): 24 µM
MIC50 (clinical isolates of Mab; Mab clinical isolate M232, 7H9 broth, read-out: MIC50 M232): 22 µM
MIC50 (clinical isolates of Mab; Mab clinical isolate M337, 7H9 broth, read-out: MIC50 M337): 25 µM
MIC50 (clinical isolates of Mab; Mab clinical isolate M404, 7H9 broth, read-out: MIC50 M404): 26.5 µM
MIC50 (clinical isolates of Mab; Mab clinical isolate M422, 7H9 broth, read-out: MIC50 M422): 23 µM
MIC50 (clinical isolates of Mab; Mab clinical isolate M506, 7H9 broth, read-out: MIC50 M506): 23.5 µM
MIC50 (clinical isolates of Mab; range over isolates, read-out: MIC50 seven Mab clinical isolates): 12 to 21 µg/mL
membrane permeabilization (M. bovis BCG [5]): induced membrane permeabilization
ATP level (M. bovis BCG [6]; 2x MIC90, 12 h): 73%
ATP level (M. bovis BCG [6]; 2x MIC90, 48 h): 27%
MIC50 (Mtb H37Rv; read-out: MIC50 Mtb H37Rv): 17 µM (≈ 8.92 µg/mL)
MIC90 (Mtb H37Rv; second value of cell MIC50/MIC90, incubation 5 days, read-out: MIC90 Mtb H37Rv): 25 µM (≈ 13.1 µg/mL)
MIC50 (M. smegmatis mc2155; MC2155, 24 h, incubation 1 day, read-out: M. smegmatis mc2155 MIC50 (Table S4)): 41 µM (≈ 21.5 µg/mL)
MIC90 (M. smegmatis mc2155; MC2155, 24 h, incubation 1 day, read-out: M. smegmatis mc2155 MIC90 (Table S4)): 58 µM (≈ 30.4 µg/mL)
MIC90 (M. smegmatis mc2155; MC2155, read-out: MIC90 M. smegmatis): 52.5 µM (≈ 27.5 µg/mL)
membrane depolarization (M. bovis BCG [7]): depolarization was evident
IC50 (HepG2): 29 µM
MBC99.9 (10^3-fold kill) (M. bovis BCG [8]): 2 x MIC90
MIC90 ([9]; CCUG48898, 7H9 broth (first value)): 91 µM (≈ 47.8 µg/mL)
MIC50 [9, 13]: 61 µM (≈ 32 µg/mL)
MIC50 [9, 14]: 11 µM (≈ 5.77 µg/mL)
MIC90 ([9]; CCUG48898, camH broth (second value)): 28 µM (≈ 14.7 µg/mL)
formazan formation from MTS (M. bovis BCG [10]): dose dependent reduction in formazan
reduction of CFUs (M. bovis BCG [11]; 21-day time point): 10^5 fold
regrowth in time-kill curve (M. bovis BCG [11]; 21 days): no rebound in growth
kill of hypoxic M. bovis BCG ([12]; 2x MIC90BCG): resisted killing
kill of hypoxic M. bovis BCG ([12]; 4x MIC90BCG): 10^3 fold
